For one test, the target named is JH2 domain of human Tyk2 (Homo sapiens (Human), UniProt P29597). Kind of test: JH2 Biochemical Assay (TR-FRET probe displacement). Type of test: binding.
The next test concerns the target Tyk2 (Homo sapiens (Human), UniProt P29597). Kind of test: pSTAT4 Cell Assay (MSD, NK92 cells). Type of test: cell-based.
Setting [1] is: JH2 domain of human Tyk2, TR-FRET probe displacement.
Setting [2] is: TR-FRET probe displacement, JH2 domain.
The mark [3] stands for this setting: TR-FRET probe displacement, JH2 domain of human Tyk2.

Where two headings read alike, the source gives them in different places.

Sequence of Tyk2 (P29597 whole entry, the tested form may be a part): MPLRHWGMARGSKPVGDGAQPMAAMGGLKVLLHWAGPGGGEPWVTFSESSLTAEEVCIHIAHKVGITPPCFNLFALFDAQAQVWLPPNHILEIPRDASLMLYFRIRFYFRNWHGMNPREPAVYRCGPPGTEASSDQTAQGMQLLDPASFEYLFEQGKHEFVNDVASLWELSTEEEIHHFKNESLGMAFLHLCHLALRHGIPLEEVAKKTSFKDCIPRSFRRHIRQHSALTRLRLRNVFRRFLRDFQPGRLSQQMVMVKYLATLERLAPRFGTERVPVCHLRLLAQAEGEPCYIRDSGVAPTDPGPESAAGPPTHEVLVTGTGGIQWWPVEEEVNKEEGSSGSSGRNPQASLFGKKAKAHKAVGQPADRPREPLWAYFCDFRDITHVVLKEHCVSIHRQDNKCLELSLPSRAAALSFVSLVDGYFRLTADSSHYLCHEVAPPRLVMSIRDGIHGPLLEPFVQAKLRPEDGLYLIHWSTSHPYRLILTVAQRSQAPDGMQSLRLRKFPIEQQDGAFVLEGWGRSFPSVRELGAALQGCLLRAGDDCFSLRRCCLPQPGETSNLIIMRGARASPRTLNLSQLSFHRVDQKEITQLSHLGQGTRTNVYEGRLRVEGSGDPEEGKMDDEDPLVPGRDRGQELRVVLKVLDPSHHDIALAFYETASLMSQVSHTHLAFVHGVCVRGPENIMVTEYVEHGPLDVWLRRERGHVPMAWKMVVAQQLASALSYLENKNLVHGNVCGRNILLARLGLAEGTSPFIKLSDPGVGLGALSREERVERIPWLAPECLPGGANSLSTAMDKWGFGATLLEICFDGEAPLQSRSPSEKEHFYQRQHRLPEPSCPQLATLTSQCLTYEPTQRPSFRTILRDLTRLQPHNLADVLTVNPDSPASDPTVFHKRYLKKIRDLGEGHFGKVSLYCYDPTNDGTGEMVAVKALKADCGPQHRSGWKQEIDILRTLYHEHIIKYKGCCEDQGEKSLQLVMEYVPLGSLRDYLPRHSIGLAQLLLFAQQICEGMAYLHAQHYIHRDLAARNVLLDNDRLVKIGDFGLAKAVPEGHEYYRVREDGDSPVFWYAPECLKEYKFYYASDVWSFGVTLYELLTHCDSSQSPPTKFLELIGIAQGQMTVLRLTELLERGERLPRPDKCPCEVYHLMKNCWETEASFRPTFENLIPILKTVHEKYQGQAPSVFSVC
Sequence of JH2 domain of human Tyk2 (P29597 575-876): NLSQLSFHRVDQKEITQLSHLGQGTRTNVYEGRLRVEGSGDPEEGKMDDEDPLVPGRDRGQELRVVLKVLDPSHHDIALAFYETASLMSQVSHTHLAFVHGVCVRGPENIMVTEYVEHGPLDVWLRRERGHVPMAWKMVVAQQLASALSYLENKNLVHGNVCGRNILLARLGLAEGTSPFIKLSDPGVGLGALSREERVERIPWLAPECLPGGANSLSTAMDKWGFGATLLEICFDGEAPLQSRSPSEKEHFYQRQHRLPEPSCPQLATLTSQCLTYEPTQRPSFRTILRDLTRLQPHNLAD

In the case of `CCc1cc(Nc2cc(NC(C)=O)ncc2-c2ccc(F)cn2)nc(C(C)(F)F)n1` [Example 582, N-(4′-((2-(1,1-difluoroethyl)-6-ethylpyrimidin-4-yl)amino)-5-fluorO[2,3′-bipyridin]-6′-yl)acetamide], the IC50 on JH2 domain of human Tyk2 (setting [1]) and at Tyk2 (MSD) was at most 10 nM each time.
Turning to `CO[C@H]1C[C@H](Oc2cnc(NC(C)=O)cc2Nc2cc(C(C)C)nc(C(C)(F)F)n2)C1` [Example 408, N-(4-((2-(1,1-difluoroethyl)-6-isopropylpyrimidin-4-yl)amino)-5-((1r,3r)-3-methoxycyclobutoxy)pyridin-2-yl)acetamide], the IC50 on JH2 domain of human Tyk2 (setting [1]) and on Tyk2 (MSD) was at most 10 nM in each case.
`CO[C@H]1C[C@@H](Oc2cnc(NC(C)=O)cc2Nc2cc(C(C)C)nc(C(C)(F)F)n2)C1` [Example 409, N-(4-((2-(1,1-difluoroethyl)-6-isopropylpyrimidin-4-yl)amino)-5-((1s,3s)-3-methoxycyclobutoxy)pyridin-2-yl)acetamide]: the values for the IC50 at JH2 domain of human Tyk2 (setting [1]) and on Tyk2 (MSD) were at most 10 nM and 10 to 100 nM, respectively.
Regarding `CC(=O)Nc1cc(Nc2ccnc(C(C)(F)F)n2)c(-c2cnn(CCN3CCOCC3)n2)cn1` [Example 778, N-(4-((2-(1,1-difluoroethyl)pyrimidin-4-yl)amino)-5-(2-(2-morpholinoethyl)-2H-1,2,3-triazol-4-yl)pyridin-2-yl)acetamide], the IC50 was at most 10 nM on JH2 domain of human Tyk2 (setting [2]) and 10 to 100 nM against Tyk2.
Take `CC(=O)Nc1cc(Nc2cc(C)nc(C(C)(F)F)n2)c(-c2cccc(N3CCOCC3)n2)cn1` [Example 628, N-(4′-((2-(1,1-difluoroethyl)-6-methylpyrimidin-4-yl)amino)-6-morpholinO[2,3′-bipyridin]-6′-yl)acetamide]: the IC50 at JH2 domain of human Tyk2 (setting [1]) and at Tyk2 (MSD) was at most 10 nM in each case.
Regarding `COc1cnc(NC(C)=O)cc1Nc1cc(C)nc(C23COC(C2)C3)n1` [Example 448, N-(4-((2-(2-oxabicyclo[2.1.1]hexan-4-yl)-6-methylpyrimidin-4-yl)amino)-5-methoxypyridin-2-yl)acetamide], the IC50 lay within 10 to 100 nM on JH2 domain of human Tyk2 (setting [1]) and 100 to 1000 nM on Tyk2 (MSD).
On to `CC(=O)Nc1cc(Nc2cc(C)nc(C(C)(F)F)n2)c(OCc2ccn(C)n2)cn1` [Example 475, N-(4-((2-(1,1-difluoroethyl)-6-methylpyrimidin-4-yl)amino)-5-((1-methyl-1H-pyrazol-3-yl)methoxy)pyridin-2-yl)acetamide], for which the results for the IC50 at JH2 domain of human Tyk2 (setting [1]) and at Tyk2 (MSD) were at most 10 nM and 10 to 100 nM, respectively.
`CC(=O)Nc1cc(Nc2ccnc(C(C)(F)F)n2)c(-c2cc(C)c(C#N)cn2)cn1` [Example 701, N-(5-cyanO4′-((2-(1,1-difluoroethyl)pyrimidin-4-yl)amino)-4-methyl-[2,3′-bipyridin]-6′-yl)acetamide]: the IC50 on JH2 domain of human Tyk2 (setting [1]) and against Tyk2 (MSD) was at most 10 nM each time.
With `CCc1cc(COc2cnc(NC(C)=O)cc2Nc2cc(C)nc(C(C)(F)F)n2)on1` [Example 319, N-(4-((2-(1,1-difluoroethyl)-6-methylpyrimidin-4-yl)amino)-5-((3-ethylisoxazol-5-yl)methoxy)pyridin-2-yl)acetamide], the results for the IC50 at JH2 domain of human Tyk2 (setting [3]) and on Tyk2 (MSD) were at most 10 nM and 10 to 100 nM, respectively.
Take `CC(=O)Nc1cc(Nc2cc(C)nc(C(C)(F)F)n2)c(-c2csc(CN3CCN(C)CC3)n2)cn1` [Example 787, N-(4-((2-(1,1-difluoroethyl)-6-methylpyrimidin-4-yl)amino)-5-(2-((4-methylpiperazin-1-yl)methyl)thiazol-4-yl)pyridin-2-yl)acetamide]: the IC50 at JH2 domain of human Tyk2 (setting [2]) and against Tyk2 was at most 10 nM throughout.
As to `CC(=O)Nc1cc(Nc2ccnc(C(C)(F)F)n2)c(-c2ccc(CN3CCOC[C@H]3C)cn2)cn1` [Example 880, (R)-N-(4′-((2-(1,1-difluoroethyl)pyrimidin-4-yl)amino)-5-((3-methylmorpholino)methyl)-[2,3′-bipyridin]-6′-yl)acetamide], the IC50 on JH2 domain of human Tyk2 (setting [2]) and against Tyk2 was at most 10 nM throughout.
With `CC(=O)Nc1cc(Nc2cc(C)nc(C(C)(F)F)n2)c(-c2cn3c(n2)OCC3)cn1` [Example 770, N-(4-((2-(1,1-difluoroethyl)-6-methylpyrimidin-4-yl)amino)-5-(2,3-dihydroimidazo[2,1-b]oxazol-6-yl)pyridin-2-yl)acetamide], the IC50 on JH2 domain of human Tyk2 (setting [2]) and on Tyk2 was at most 10 nM each time.
On to `CCOc1cnc(NC(C)=O)cc1Nc1cc(-c2cnn(C(=O)OC(C)(C)C)c2)nc(C(C)(F)F)n1` [Example 307, tert-butyl 4-(6-((2-acetamido-5-ethoxypyridin-4-yl)amino)-2-(1,1-difluoroethyl)pyrimidin-4-yl)-1H-pyrazole-1-carboxylate], for which the values for the IC50 at JH2 domain of human Tyk2 (setting [3]) and at Tyk2 (MSD) were at most 10 nM and 10 to 100 nM, respectively.
In the case of `COCc1cnc(-c2cnc(NC(C)=O)cc2Nc2ccnc(C(C)(F)F)n2)s1` [Example 781, N-(4-((2-(1,1-difluoroethyl)pyrimidin-4-yl)amino)-5-(5-(methoxymethyl)thiazol-2-yl)pyridin-2-yl)acetamide], the concentration for half-maximal inhibition (IC50) on JH2 domain of human Tyk2 (setting [2]) and at Tyk2 was at most 10 nM in each case.
For the molecule `CC(=O)Nc1cc(Nc2cc(C)nc(C(C)(F)F)n2)c([C@@H]2C[C@@H]2C#N)cn1` (relative stereo) [Example 810, rel-N-(5-((1R,2S)-2-cyanocyclopropyl)-4-((2-(1,1-difluoroethyl)-6-methylpyrimidin-4-yl)amino)pyridin-2-yl)acetamide], the IC50 at JH2 domain of human Tyk2 (setting [2]) is 10 to 100 nM; at Tyk2, at least 1000 nM.
On to `CC(=O)Nc1cc(Nc2ccnc(C(C)(F)F)n2)c(-c2ncccn2)cn1` [Example 685, N-(4-((2-(1,1-difluoroethyl)pyrimidin-4-yl)amino)-5-(pyrimidin-2-yl)pyridin-2-yl)acetamide], for which the IC50 on JH2 domain of human Tyk2 (setting [1]) is at most 10 nM; against Tyk2 (MSD), 10 to 100 nM.
The like results for `CC(=O)Nc1cc(Nc2cc(C)nc(C(C)(F)F)n2)c(OCc2cnoc2)cn1` [Example 504, N-(4-((2-(1,1-difluoroethyl)-6-methylpyrimidin-4-yl)amino)-5-(isoxazol-4-ylmethoxy)pyridin-2-yl)acetamide] were, in that order, at most 10 nM and 10 to 100 nM.
On to `CC(=O)Nc1cc(Nc2cc(C)nc(C(C)(F)F)n2)c(OCC(F)F)cn1` [Example 24, N-(5-(2,2-difluoroethoxy)-4-((2-(1,1-difluoroethyl)-6-methylpyrimidin-4-yl)amino)pyridin-2-yl)acetamide], for which the IC50 on JH2 domain of human Tyk2 (setting [3]) was at most 10 nM; on Tyk2 (MSD) it was 10 to 100 nM.
Regarding `COc1cnc(-c2cnc(NC(C)=O)cc2Nc2cc(OC3CC3)nc(C(C)(F)F)n2)cn1` [Example 830, N-(4-((6-cyclopropoxy-2-(1,1-difluoroethyl)pyrimidin-4-yl)amino)-5-(5-methoxypyrazin-2-yl)pyridin-2-yl)acetamide], the figures for the IC50 at JH2 domain of human Tyk2 (setting [2]) and against Tyk2 were at most 10 nM and 10 to 100 nM, respectively.
The like results for `CC(=O)Nc1cc(Nc2cc(C)nc(C(C)(F)F)n2)c(-c2ccnc(C(C)(F)F)n2)cn1` [Example 837, N-(4-((2-(1,1-difluoroethyl)-6-methylpyrimidin-4-yl)amino)-5-(2-(1,1-difluoroethyl)pyrimidin-4-yl)pyridin-2-yl)acetamide] were, in that order, at most 10 nM and at most 10 nM.
As to `COc1nccc(-c2cnc(NC(C)=O)cc2Nc2cccc(C(C)(F)F)n2)n1` [Example 177, N-(4-((6-(1,1-difluoroethyl)pyridin-2-yl)amino)-5-(2-methoxypyrimidin-4-yl)pyridin-2-yl)acetamide], the IC50 at JH2 domain of human Tyk2 (setting [3]) and at Tyk2 (MSD) was at most 10 nM in each case.
As to `COCC1(COc2cnc(NC(C)=O)cc2Nc2cc(C)nc(C(C)(F)F)n2)CC1` [Example 326, N-(4-((2-(1,1-difluoroethyl)-6-methylpyrimidin-4-yl)amino)-5-((1-(methoxymethyl)cyclopropyl)methoxy)pyridin-2-yl)acetamide], the IC50 at JH2 domain of human Tyk2 (setting [3]) is at most 10 nM; on Tyk2 (MSD), 10 to 100 nM.
Turning to `CC(=O)Nc1cc(Nc2ccnc(C(C)(F)F)n2)c(-c2cnn(CCN3CCN(C)CC3)n2)cn1` [Example 779, N-(4-((2-(1,1-difluoroethyl)pyrimidin-4-yl)amino)-5-(2-(2-(4-methylpiperazin-1-yl)ethyl)-2H-1,2,3-triazol-4-yl)pyridin-2-yl)acetamide], the IC50 at JH2 domain of human Tyk2 (setting [2]) is at most 10 nM; on Tyk2, 10 to 100 nM.
Regarding `CC(=O)Nc1cc(Nc2cc(C)nc(C(C)(F)F)n2)c(-c2cccc(OC(F)F)n2)cn1` [Example 150, N-(4′-((2-(1,1-difluoroethyl)-6-methylpyrimidin-4-yl)amino)-6-(difluoromethoxy)-[2,3′-bipyridin]-6′-yl)acetamide], the IC50 at JH2 domain of human Tyk2 (setting [3]) and against Tyk2 (MSD) was at most 10 nM each time.
Turning to `COCCOc1cnc(NC(C)=O)cc1Nc1nc(C)cc(C(F)CF)n1` (centres unmarked) [Example 80, N-(4-((4-(1,2-difluoroethyl)-6-methylpyrimidin-2-yl)amino)-5-(2-methoxyethoxy)pyridin-2-yl)acetamide], the IC50 lay in the range of 10 to 100 nM at JH2 domain of human Tyk2 (setting [3]) and 100 to 1000 nM at Tyk2 (MSD).
As for `CC(=O)Nc1cc(Nc2cc(C)nc(C(C)(F)F)n2)c(-c2ccc(CN3CCOCC3)cn2)cn1` [Example 649, N-(4′-((2-(1,1-difluoroethyl)-6-methylpyrimidin-4-yl)amino)-5-(morpholinomethyl)-[2,3′-bipyridin]-6′-yl)acetamide], the IC50 at JH2 domain of human Tyk2 (setting [1]) and on Tyk2 (MSD) was at most 10 nM each time.
In the case of `COCCOc1cnc(NC(C)=O)cc1Nc1cccc(C(C)(F)F)n1` [Example 56, N-(4-((6-(1,1-difluoroethyl)pyridin-2-yl)amino)-5-(2-methoxyethoxy)pyridin-2-yl)acetamide], the IC50 on JH2 domain of human Tyk2 (setting [3]) and against Tyk2 (MSD) was at most 10 nM throughout.
As to `CC(=O)Nc1cc(Nc2ccnc(C(C)(F)F)n2)c(-c2nc(C)ns2)cn1` [Example 716, N-(4-((2-(1,1-difluoroethyl)pyrimidin-4-yl)amino)-5-(3-methyl-1,2,4-thiadiazol-5-yl)pyridin-2-yl)acetamide], the results for the IC50 at JH2 domain of human Tyk2 (setting [1]) and against Tyk2 (MSD) were at most 10 nM and 10 to 100 nM, respectively.

The IC50 is the concentration that inhibits the measured activity by half. The low end stands for greater potency, the high end for weaker potency.

Values taken from patent US20260028365A1 (BIOGEN MA INC., priority 2022, published 2026).
